Entries after “also recorded” stand apart in the source; their conditions may differ. Where two headings read alike, the source gives them in different places.
What was measured:
[1] = tested on: mice with influenza pneumonia; settings: cited from earlier work
[2] = tested on: human pulmonary microvascular endothelial cells (hPMVEC); assay: Immunofluorescence staining (VE-cadherin, actin) of human pulmonary microvascular endothelial cells; type: cell-based; settings: VT 300 ng/ml
Procedure: Human pulmonary microvascular endothelial cells (hPMVEC; PromoCell, Heidelberg, Germany), used at passages 4–6, were grown to confluence on glass slides, incubated with VT (300 ng/ml) or sterile PBS as a control for 90 minutes and then stimulated with LPS (0.1 μg/ml) from Escherichia coli (Sigma-Aldrich, Steinheim, Germany), PLY (0.25, 0.5, 0.75 μg/ml), or PBS. After 30 minutes, cells were fixed in 3% formalin, and the […] vascular endothelial (VE)-cadherin (1:400, goat antihuman VE-cadherin; Santa Cruz Biotechnology, Santa Cruz, CA, USA; secondary antibody 1:8000, Alexa Fluor 488 F(ab′)2 rabbit antigoat IgG (H + L), Invitrogen, Darmstadt, Germany) and actin fibers (1:2000; phalloidin Alexa 546-labeled; Invitrogen) were stained to evaluate cell morphology. 4′,6-diamidino-2-phenylindole staining (Sigma-Aldrich) was used to visualize cell nuclei. The immunofluorescence of the cells was analyzed by confocal microscopy using an LSM 780 microscope with ZEN 2011 software (objective: Plan Apochromat × 63/1.40 oil; Carl Zeiss Microscopy, Jena, Germany).

[3] = tested on: Streptococcus pneumoniae-infected mice; assay: Blood leukocytes in Streptococcus pneumoniae-infected mice; settings: VT 500 ng i.v.; 24 h and 48 h p.i.; n = 8
Procedure: (§1) For all experiments, female C57BL/6 N mice (8 to 10 weeks old, weighing 18 to 20 g; Charles River Laboratories, Sulzfeld, Germany) were used. Animals were housed under specific pathogen-free conditions under a 12–h/12-h light/dark cycle with free access to food and water.
Mice were anesthetized with ketamine (80 mg/kg) and xylazine (25 mg/kg) and transnasally inoculated with 5 × 10^6 colony-forming units (CFU) of S. pneumoniae (NCTC7978) in 20 μl of sterile PBS as described before [35]. Sham-infected control mice received 20 μl of sterile PBS. After 22 h, 34 h, and 46 h, body weight and rectal temperature were measured, and different dosages of VT (100, 200, or 500 ng in 100 μl of PBS) or PBS were intravenously injected into the tail vein. Twenty-four or forty-eight hours postinfection (p.i.), mice were anesthetized (160 mg/kg ketamine and 75 mg/kg xylazine) and exsanguinated. […] Subsequently, lungs were flushed, and BAL was performed. […] Blood leukocytes were quantified using a scil Vet ABC Hematology Analyzer (scil animal care company GmbH, Viernheim, Germany).

[4] = tested on: Streptococcus pneumoniae-infected mice; assay: BALF leukocyte recruitment (FACS) in Streptococcus pneumoniae-infected mice; settings: VT 500 ng i.v., 24 h and 48 h p.i., n = 8
Procedure: as §1
(§2) Mice were anesthetized with ketamine (80 mg/kg) and xylazine (25 mg/kg) and transnasally inoculated with 5 × 10^6 colony-forming units (CFU) of S. pneumoniae (NCTC7978) in 20 μl of sterile PBS as described before [35]. Sham-infected control mice received 20 μl of sterile PBS. After 22 h, 34 h, and 46 h, body weight and rectal temperature were measured, and different dosages of VT (100, 200, or 500 ng in 100 μl of PBS) or PBS were intravenously injected into the tail vein. Twenty-four or forty-eight hours postinfection (p.i.), mice were anesthetized (160 mg/kg ketamine and 75 mg/kg xylazine) and exsanguinated. […] Subsequently, lungs were flushed, and BAL was performed. To determine permeability, HSA (1 mg/75 μl) was intravenously infused 1 h before lung preparation, and the BALF/plasma ratio was calculated as described elsewhere [35]. […] Cytokines from BALF were measured with a multiplex assay (ProcartaPlex; eBioscience), and plasma levels of interleukin (IL)-6 (BD Biosciences) and KC (keratinocyte chemoattractant; R&D Systems) were quantified by ELISA.

[5] = tested on: murine lung endothelial cells (mLEC); assay: Transcellular electrical resistance (ECIS) of murine lung endothelial cells; settings: VT 2, 10, 50 ng/ml, 30 minutes pretreatment; PLY 0.75 μg/ml, 3 h; n = 4-7
Procedure: Briefly, mice were killed by an overdose of ketamine/xylazine. Lungs of four mice were pooled, minced, and digested by dispase (20 ml, 5 U/ml; BD Biosciences, Heidelberg, Germany) and DNase (20 ml, 0.5 mg/ml; AppliChem GmbH, Darmstadt, Germany). The homogenate was filtered, collected by centrifugation (300 × g), and washed twice, and the resulting cell suspension was incubated with antimouse VE-cadherin antibody (rat antimouse CD 144; BD Pharmingen, San Diego, CA, USA)-coated magnetic beads (sheep antirat IgG DynaBeads; Invitrogen GmbH, Karlsruhe, Germany) for positive isolation with the DynaMag-Spin magnet system (Invitrogen). The isolated cells were resuspended in Endothelial Cell Growth Medium MV2 (PromoCell), seeded onto fibronectin-coated (Sigma-Aldrich) culture dishes (diameter 35 mm), and grown to a confluent monolayer in 3–4 days. Then, cells were split after trypsinization [37], seeded and grown to confluence on fibronectin-coated evaporated gold microelectrodes (eight-well array with ten electrodes per well; ibidi GmbH, Martinsried, Germany) connected to an electric cell-substrate impedance sensing (ECIS) system (Applied Biophysics, Troy, NY, USA) [38] for continuous monitoring of transcellular electrical resistance (TER). Cells were pretreated with VT (2, 10, and 50 ng/ml) or PBS for 30 minutes and then stimulated with PLY (0.75 μg/ml) or PBS for 3 h.

[6] = tested on: Streptococcus pneumoniae-infected mice; assay: Lung permeability (HSA BALF/plasma ratio) in Streptococcus pneumoniae-infected mice
Procedure: as §1, §2

mouse Tie2Fc receptor = molecular target: T1, mouse Tie2Fc receptor (Mus musculus, UniProt Q02858); assay: Tryptophan fluorescence spectroscopy, saturation binding of VT to mouse Tie2Fc
T1 construct: Fc (immunoglobulin Fc fusion partner); purchased R&D Systems
Procedure: Binding studies were carried out in 96 well plates (Brand-plates pureGrade reference 781607; BRAND GMBH + CO KG, Wertheim, Germany). Mouse Tie2Fc receptor and human immunoglobulin G (IgG) Fc were obtained from R&D Systems (Minneapolis, MN, USA). Dilutions were prepared in HyClone™ Dulbecco’s PBS (GE Healthcare Life Sciences, Mississauga, ON, Canada). The saturation binding curve was prepared with all ligand dilutions and receptors as 2× concentrations. Equal volumes of ligand and receptor were added to generate a final 1× concentration (500 nM Tie2Fc final concentration). Spectroscopic studies were performed on a SpectraMax M2 fluorometer (Molecular Devices, Sunnyvale, CA, USA). Measurements were taken at an excitation wavelength of 295 nm. Emission scans were set from 360 to 450 nm.
Saturation binding data (Fig. 1a–c) are presented as mean ± SEM and were calculated using normalized one-site specific binding and nonlinear regression. For the Tie2 phosphorylation analysis (Fig. 1d), one-way analysis of variance (with Dunnett’s post hoc multiple comparisons test) was used to compare treatment groups with the vehicle-treated group. All other experimental data are expressed as mean, mean + SEM, or mean ± SEM. Groups were compared using the Mann-Whitney U test followed by the Bonferroni-Holm correction, where indicated. p Values < 0.05 were considered significant. Analyses were performed using Prism version 6.00 software (GraphPad Software, La Jolla, CA, USA).

Streptococcus pneumoniae = assay: Bacterial growth in vitro (optical density); type: cell-based, Streptococcus pneumoniae serotype 3 (NCTC7978); settings: VT 5 µg/ml, log-phase culture, THY media, 37°C, 5% CO2; OD every 30 min for 5 hours; preliminary experiment
Procedure: experiment, we investigated if Vasculotide (VT) has a direct effect on the bacterial growth of Streptococcus pneumoniae. Capsulated S. pneumoniae (S. pn.) serotype 3 (NCTC7978) was cultured on Columbia blood agar + 5% sheep blood for 8 h. Single colonies were transferred into THY media to yield OD600 = 0.03-0.04. Liquid cultures were incubated at 37°C and 5% CO2 for 2.5-4 h until the bacteria reached a phase of logarithmic growth (OD600 = 0.3-0.4).
30 min later, log-phase bacterial cultures were treated with VT (5 µg/ml) or PBS. Optical density was measured every 30 min for further 5 hours. Individual time-proliferation curves

Tie2 = Tie2 phosphorylation in mouse primary lung microvascular endothelial cells (phospho-Tie2 ELISA); type: cell-based; settings: VT 1, 10, 100, 1000 ng/ml, 15 minutes, serum-containing media; phospho-Tie2 and total Tie2 ELISA; n = 3-6
Procedure: C57BL/6 mouse primary lung microvascular endothelial cells (Cell Biologics, Chicago, IL, USA) were grown in endothelial cell medium with a kit (Cell Biologics) in 20% O2/5% CO2 in a 37 °C humidified chamber and split 1:2 once reaching 90–95% confluency. To examine the activation of Tie2 by VT in mouse primary lung microvascular endothelial cells, 95–100% confluent cells were stimulated with VT (1, 10, 100, and 1000 ng/ml) in serum-containing media for 15 minutes. Human Ang-1 (R&D Systems) was used as a positive control. VT was synthesized, purified, and validated as described before. Cell lysates were collected using lysis buffer recommended in the mouse phospho-Tie-2 enzyme-linked immunosorbent assay (ELISA) kit (R&D Systems); tyrosine-phosphorylated Tie2 and total Tie2 were measured using ELISA kits (mouse phospho-Tie2 and total-Tie2 ELISA kits; R&D Systems). Three to six independent experiments were analyzed.
Saturation binding data (Fig. 1a–c) are presented as mean ± SEM and were calculated using normalized one-site specific binding and nonlinear regression. For the Tie2 phosphorylation analysis (Fig. 1d), one-way analysis of variance (with Dunnett’s post hoc multiple comparisons test) was used to compare treatment groups with the vehicle-treated group. All other experimental data are expressed as mean, mean + SEM, or mean ± SEM. […]

[7] = Body weight and temperature of Streptococcus pneumoniae-infected mice; settings: VT i.v. (500 ng in Figure S2), 46 h p.i. in Figure S2, vs infected, PBS-treated

T1 sequence (Q02858 with tags, fused parts or gaps limits assumed): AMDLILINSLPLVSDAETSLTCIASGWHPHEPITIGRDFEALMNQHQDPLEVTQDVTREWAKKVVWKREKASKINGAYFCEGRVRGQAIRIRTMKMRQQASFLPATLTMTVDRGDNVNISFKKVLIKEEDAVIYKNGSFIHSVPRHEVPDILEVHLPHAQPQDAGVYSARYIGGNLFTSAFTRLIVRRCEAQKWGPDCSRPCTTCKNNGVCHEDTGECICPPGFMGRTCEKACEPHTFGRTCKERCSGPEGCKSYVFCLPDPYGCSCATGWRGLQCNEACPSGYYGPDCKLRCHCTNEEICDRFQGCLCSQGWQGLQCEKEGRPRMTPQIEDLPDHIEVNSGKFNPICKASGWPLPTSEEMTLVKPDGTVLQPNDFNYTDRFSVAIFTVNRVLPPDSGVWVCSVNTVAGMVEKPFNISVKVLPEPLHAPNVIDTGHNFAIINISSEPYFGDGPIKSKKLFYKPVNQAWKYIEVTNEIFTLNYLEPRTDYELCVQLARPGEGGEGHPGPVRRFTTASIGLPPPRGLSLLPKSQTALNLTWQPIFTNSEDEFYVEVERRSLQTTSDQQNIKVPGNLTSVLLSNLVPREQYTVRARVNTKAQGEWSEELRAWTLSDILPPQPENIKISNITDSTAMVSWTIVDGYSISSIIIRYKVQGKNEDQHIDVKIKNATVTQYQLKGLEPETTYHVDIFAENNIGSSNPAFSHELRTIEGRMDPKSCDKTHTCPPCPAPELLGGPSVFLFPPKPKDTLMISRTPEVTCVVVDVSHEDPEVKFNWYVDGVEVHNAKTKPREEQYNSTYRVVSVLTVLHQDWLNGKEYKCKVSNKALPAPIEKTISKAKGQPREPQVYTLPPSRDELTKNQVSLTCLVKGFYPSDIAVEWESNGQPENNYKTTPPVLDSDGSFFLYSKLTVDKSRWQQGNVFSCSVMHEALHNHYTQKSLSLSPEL

## Vasculotide [VT]
[1]
  survival of mice with influenza pneumonia: increase the survival
[1]; ref 28 (Sugiyama et al.)
  leukocyte influx into the lung in influenza pneumonia: without affecting leukocyte influx into the lung
  pulmonary barrier function in influenza pneumonia: protective effect of VT on pulmonary barrier function
  virus replication in influenza pneumonia: without affecting leukocyte influx into the lung or repressing virus replication
[2]; 90 minutes pretreatment, LPS 0.1 μg/ml or PLY 0.25, 0.5, 0.75 μg/ml for 30 minutes, three independent experiments
  monolayer stabilization (gap formation, stress fibers, cell loss) after LPS or PLY: stabilized cell monolayers, protected from gap formation, and reduced stress fibers as well as cell loss; also recorded: stabilized the cell monolayer, avoided gap formation, and reduced stress fibers and cell loss from culture dishes
[2]; 90 minutes, no LPS or PLY
  effect on unstimulated hPMVEC monolayer: no effect of VT pretreatment was observed; also recorded: intact monolayers with tight intercellular contacts and thin actin fibers
[3]
  blood leukocytes: unaffected; also recorded: did not differ
[4]
  pulmonary leukocyte recruitment (BALF): did not significantly reduce; also recorded: not significantly affected; also recorded: not significantly reduced
[5]
  PLY-induced TER decrease: attenuated the PLY-induced TER decrease in a dose-dependent manner
[6]; VT 500 ng i.v. at 22, 34, 46 h p.i., Fig. 4b, n = 8, vs PBS
  lung permeability (HSA BALF/plasma ratio), 48 h p.i., second set: decreased pulmonary barrier disruption; also recorded: Lung permeability was decreased
[6]; VT 500 ng i.v. at 22, 34, 46 h p.i., dose-finding experiment (Fig. 3b), n = 5-7, vs PBS
  lung hyperpermeability (HSA BALF/plasma ratio), 48 h p.i.: significant permeability reduction; also recorded: significantly reduced lung hyperpermeability
[6]; VT 500 ng i.v. at 22 h p.i., Fig. 4a, n = 8, vs PBS
  lung permeability (HSA BALF/plasma ratio), 24 h p.i., second set: decreased pulmonary barrier disruption; also recorded: Lung permeability was decreased
[6]; VT 500 ng i.v. at 22 h p.i., dose-finding experiment (Fig. 3a), n = 5-7, vs PBS
  lung hyperpermeability (HSA BALF/plasma ratio), 24 h p.i.: significant permeability reduction; also recorded: significantly reduced lung hyperpermeability
[6]; VT 100, 200, 500 ng i.v. from 22 h p.i., 24 h and 48 h p.i.
  lung hyperpermeability, dose dependence: reduced lung hyperpermeability in a dose-dependent fashion; also recorded: quickly and effectively reduce pulmonary hyperpermeability in a dose-dependent manner
Mouse Tie2Fc receptor; 500 nM Tie2Fc
  saturability of fluorescence intensity with mouse Tie2Fc: saturable
Mouse Tie2Fc receptor; 500 nM Tie2Fc, excitation 295 nm
  intrinsic fluorescence intensity / binding with mouse Tie2Fc: dose-dependent binding; also recorded: dose-dependent increase in intrinsic fluorescence intensity
Mouse Tie2Fc receptor; 95% confidence interval, 500 nM Tie2Fc, one-site specific binding, read-out: 95% CI of the dissociation constant, mouse Tie2Fc
  Kd: 2.92 to 67 nM
Mouse Tie2Fc receptor; murine Tie2 receptor, discussion
  dissociation constant, in words: in the low nanomolar range
Mouse Tie2Fc receptor; tryptophan fluorescence, excitation 295 nm, emission 360-450 nm, 500 nM Tie2Fc, PBS, normalized one-site specific binding, nonlinear regression, read-out: dissociation constant of the normalized specific binding of VT to mouse Tie2Fc
  Kd: 35 nM
Streptococcus pneumoniae
  direct antimicrobial activity / bacterial growth: did not affect bacterial growth in vitro; also recorded: failed to show a direct antimicrobial activity
Tie2
  Tie2 phosphorylation: resulted in Tie2 phosphorylation in a dose-dependent manner; also recorded: dose-dependent phosphorylation of Tie2
[7]
  body weight: did not influence; also recorded: not affected
[7]; rectal
  body temperature: did not influence; also recorded: not affected

Reference: PMC5683375, “Vasculotide reduces pulmonary hyperpermeability in experimental pneumococcal pneumonia” (Critical Care, 2017)
